This note sets out measurements from the SangsterLogP compilation.

Broadly, the logP is a log measure of how a compound divides between an organic and an aqueous phase. Read a low logP as lower lipophilicity.

Take `CC(C)CCC/C=C/c1nc(CCOc2ccc3c(c2)CN(C(=O)/C=C/C2CC2)C(C(=O)O)C3)co1` (configuration not stated): the logP worked out at 3.69.
For `CCOC/C=C/C(=O)N1Cc2cc(OCCc3coc(/C=C/CCCC(C)C)n3)ccc2CC1C(=O)O` (configuration not stated) the value was 3.52; for `C/C=C/C=C/C(=O)N1Cc2cc(OCCc3nc(/C=C/C(C)C)oc3C)ccc2C[C@H]1C(=O)O`, 2.77; for `C/C=C/C=C/C(=O)N1Cc2cc(OCCc3nc(/C=C/C(C)(C)CC)oc3C)ccc2C[C@H]1C(=O)O`, 3.52.
With `C/C=C/C=C/C(=O)N1Cc2cc(OCCc3nc(/C=C/CC(C)(C)C)oc3C)ccc2C[C@H]1C(=O)O` the figure was 3.59.
For `CCC/C=C/C(=O)N1Cc2cc(OCCc3coc(/C=C/CCCC(C)C)n3)ccc2CC1C(=O)O` (configuration not stated) the value was 4.04.
Take `C=CCCCC(=O)N1Cc2cc(OCCc3coc(/C=C/CCCC(C)C)n3)ccc2CC1C(=O)O` (configuration not stated): the logP was 4.03.
With `C/C=C/C=C/C(=O)N1Cc2cc(OCCc3nc(/C=C/C(C)CCC)oc3C)ccc2C[C@H]1C(=O)O` (some centres not stated) the figure was 3.84; with `CCOCCC(=O)N1Cc2cc(OCCc3coc(/C=C/CCCC(C)C)n3)ccc2CC1C(=O)O` (configuration not stated), 3.48.
For `CCCCCC(=O)N1Cc2cc(OCCc3coc(/C=C/CCCC(C)C)n3)ccc2CC1C(=O)O` (configuration not stated) the value was 4.34; for `C=CCCC(=O)N1Cc2cc(OCCc3nc(/C=C/CCC(C)C)oc3C)ccc2C[C@H]1C(=O)O`, 3.76; for `CC(C)=C/C=C/C(=O)N1Cc2cc(OCCc3coc(/C=C/CCCC(C)C)n3)ccc2CC1C(=O)O` (configuration not stated), 4.09.
With `C/C=C/C=C/C(=O)N1Cc2cc(OCCc3nc(CCCCC(C)C)oc3C)ccc2C[C@H]1C(=O)O` the figure was 3.79.
Consider `Cc1oc(/C=C/CCC(C)C)nc1CCOc1ccc2c(c1)CN(C(=O)/C=C/C=C/CO)C(C(=O)O)C2` (configuration not stated), for which the logP was 3.09.
Regarding `C/C=C/C=C/C(=O)N1Cc2cc(OCCc3nc(/C(=C/C)CC)oc3C)ccc2C[C@H]1C(=O)O`, the logP amounted to 2.75.
Take `CCO/C=C/C(=O)N1Cc2cc(OCCc3coc(/C=C/CCCC(C)C)n3)ccc2CC1C(=O)O` (configuration not stated): the logP came to 3.56.
Take `Cc1oc(/C=C/CCC(C)C)nc1CCOc1ccc2c(c1)CN(C(=O)/C=C/c1ccco1)[C@H](C(=O)O)C2`: the logP came out at 3.76.
Compound `C/C=C/C=C/C(=O)N1Cc2cc(OCCc3nc(/C(C)=C/CCC(C)C)oc3C)ccc2C[C@H]1C(=O)O` registered a logP of 4.29.
For `CC(C)CCC/C=C/c1nc(CCOc2ccc3c(c2)CN(C(=O)/C=C/c2ccco2)C(C(=O)O)C3)co1` (configuration not stated) the value was 3.76; for `C/C=C/C=C/C(=O)N1Cc2cc(OCCc3nc(/C=C/C(CC)CC)oc3C)ccc2C[C@H]1C(=O)O`, 3.68; for `CC(C)CCC/C=C/c1nc(CCOc2ccc3c(c2)CN(C(=O)/C=C/c2cccs2)C(C(=O)O)C3)co1` (configuration not stated), 3.95.
With `C/C=C/C=C/C(=O)N1Cc2cc(OCCc3nc(/C=C/CCCC(C)C)oc3C)ccc2CC1C(=O)O` (configuration not stated) the figure was 4.1.
For `C/C=C/C=C/C(=O)N1Cc2cc(OCCc3nc(/C=C/CCC(C)C)oc3C)ccc2C[C@H]1C(=O)O` the value was 3.81; for `C/C=C/C=C/C(=O)N1Cc2cc(OCCc3nc(/C(C)=C/CC)oc3C)ccc2C[C@H]1C(=O)O`, 2.88.
Consider `C/C=C/C=C/C(=O)N1Cc2cc(OCCc3nc(C=CCC(C)C)oc3C)ccc2CC1C(=O)O` (configuration not stated), for which the log partition coefficient (logP) was determined as 3.23.
With `C/C=C/C=C/C(=O)N1Cc2cc(OCCc3nc(/C=C/C(C)(C)C)oc3C)ccc2C[C@H]1C(=O)O` the figure was 3.1; with `CCC(O)/C=C/C(=O)N1Cc2cc(OCCc3coc(/C=C/CCCC(C)C)n3)ccc2CC1C(=O)O` (configuration not stated), 3.33.
